Results from patent publication US11866407B2 (priority 2021, dated 2024).
Where two headings read alike, the source gives them in different places. Residues, ends and D or L forms follow the SMILES beside them. *: point of attachment. Cbz = O=C(OCc1ccccc1)*; CH2F = FC*

Assays:
SARS-CoV-2 M^pro = SARS-CoV-2 M^pro (Severe acute respiratory syndrome coronavirus 2, UniProt P0DTD1); test: FRET-based enzymatic assay, SARS-CoV-2 Mpro; format: biochemical
PL^pro = PL^pro (Severe acute respiratory syndrome coronavirus 2, UniProt P0DTD1); test: PLpro protease inhibition (Table 2); format: biochemical, SARS-CoV-2
[1] = Cytotoxicity in Calu-3 cells; format: cell-based; conditions: human
[2] = Cytotoxicity in Vero E6 cells; conditions: African green monkey
in vitro [3] = conditions: African green monkey
SARS-CoV-2 [4] = test: Antiviral activity in Calu-3 cells (Table 2); format: cell-based; conditions: Severe acute respiratory syndrome coronavirus 2, Calu-3
in vitro [5] = conditions: human, Caco-2
in vitro [6] = conditions: human
calpain I = target: T1, calpain I (Homo sapiens, UniProt P07384); test: Calpain I enzymatic assay; format: biochemical
T1 construct: purchased Sigma-Aldrich C6108
T1 sequence (P07384 1-714): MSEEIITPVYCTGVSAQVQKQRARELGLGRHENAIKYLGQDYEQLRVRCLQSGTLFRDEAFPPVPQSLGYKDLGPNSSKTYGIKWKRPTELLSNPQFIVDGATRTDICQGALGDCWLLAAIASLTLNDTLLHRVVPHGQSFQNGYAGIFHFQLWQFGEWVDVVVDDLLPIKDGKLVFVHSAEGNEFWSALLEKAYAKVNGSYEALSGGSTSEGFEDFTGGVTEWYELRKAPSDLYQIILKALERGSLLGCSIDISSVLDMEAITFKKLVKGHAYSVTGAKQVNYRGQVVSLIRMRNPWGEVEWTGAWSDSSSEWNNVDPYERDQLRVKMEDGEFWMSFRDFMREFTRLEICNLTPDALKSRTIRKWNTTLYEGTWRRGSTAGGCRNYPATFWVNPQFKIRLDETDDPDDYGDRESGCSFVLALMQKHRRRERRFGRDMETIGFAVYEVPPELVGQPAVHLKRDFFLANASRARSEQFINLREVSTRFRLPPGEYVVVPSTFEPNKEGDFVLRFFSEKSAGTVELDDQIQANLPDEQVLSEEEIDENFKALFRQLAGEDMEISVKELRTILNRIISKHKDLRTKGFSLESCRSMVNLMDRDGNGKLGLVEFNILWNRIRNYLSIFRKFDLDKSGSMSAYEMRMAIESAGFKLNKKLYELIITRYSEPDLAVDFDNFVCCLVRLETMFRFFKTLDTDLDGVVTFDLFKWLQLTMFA
T1 sequence (P04632 1-268 partner): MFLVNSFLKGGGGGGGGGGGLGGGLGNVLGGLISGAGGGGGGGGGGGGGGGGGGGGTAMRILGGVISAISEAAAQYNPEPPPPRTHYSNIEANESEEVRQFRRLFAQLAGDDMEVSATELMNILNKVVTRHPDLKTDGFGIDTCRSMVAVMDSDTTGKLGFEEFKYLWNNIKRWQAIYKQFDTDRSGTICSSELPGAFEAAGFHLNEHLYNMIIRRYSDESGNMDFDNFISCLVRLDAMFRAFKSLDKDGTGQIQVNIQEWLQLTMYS
Procedure: (§1) Calpain I, Cathepsin L and Cathepsin K enzymatic assays were carried as previously described.^33

cathepsin L = target: T2, cathepsin L (Homo sapiens, UniProt P07711); test: Cathepsin L enzymatic assay; format: biochemical
T2 construct: purchased EMD Millipore 219402
Procedure: as §1

[7] = test system: M^pros from all seven human coronaviruses; test: Thermal shift binding assay (DSF); conditions: indicating protein stabilization
SARS-CoV-2 [8] = test: SARS-CoV-2 antiviral immunofluorescence assay; format: cell-based; conditions: both cell lines (Vero E6 and Caco2-ACE2)
HCoV-OC43 = HCoV-OC43 plaque assay; format: cell-based; conditions: Betacoronavirus 1, OC43, RD cells
HCoV-229E = HCoV-229E CPE assay; format: cell-based; conditions: Human coronavirus 229E
HCoV-NL63 = HCoV-NL63 CPE assay; format: cell-based; conditions: with vs without CP-100356
caspase-3 = target: T3, caspase-3 (Homo sapiens, UniProt P42574); test: Caspase-3 enzymatic assay; format: biochemical
T3 construct: purchased BioVision 1083-25
T3 sequence (P42574 29-175 limits assumed): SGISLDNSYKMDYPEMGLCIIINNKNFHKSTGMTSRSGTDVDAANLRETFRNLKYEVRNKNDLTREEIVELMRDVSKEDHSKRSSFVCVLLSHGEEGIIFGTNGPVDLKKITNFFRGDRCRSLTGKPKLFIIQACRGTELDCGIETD
T3 sequence (P42574 176-277 limits assumed): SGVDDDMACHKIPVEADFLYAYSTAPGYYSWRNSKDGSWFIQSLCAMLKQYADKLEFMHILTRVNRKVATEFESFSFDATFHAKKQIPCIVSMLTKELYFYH
Procedure: Caspase-3 enzymatic assay was carried out as follows: 1 unit Caspase-3 protein was diluted into 1600 μl reaction buffer (20 mM HEPES pH7.4, 2 mM EDTA, 0.1% CHAPS and 5 mM DTT); 100 μl diluted protein was incubated with 1 μl various concentration of testing compounds for 30 min at 30° C.; the enzymatic reaction was initiated by adding 1 μl of 2 mM Ac-DEVD-AFC (Medchemexpress, Catalog #HY-P1005). The reaction was monitored a Molecular Devices SpectraMax iD3 plate reader with excitation at 400 nm and emission at 505 nm at 30° C. for 1 hour. The IC50 values were calculated as described in the previous section.

T2 sequence (P07711 114-333): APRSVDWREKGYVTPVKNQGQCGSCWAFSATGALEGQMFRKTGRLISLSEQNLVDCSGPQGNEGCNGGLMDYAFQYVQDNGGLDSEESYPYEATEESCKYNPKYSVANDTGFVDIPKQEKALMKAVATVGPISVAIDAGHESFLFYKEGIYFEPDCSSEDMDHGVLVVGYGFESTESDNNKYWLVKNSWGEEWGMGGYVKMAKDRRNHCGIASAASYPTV

CC(C)C[C@H](NC(=O)OCc1ccc(NC(=O)CCC(=O)NCCOCCOCCNc2cccc3c2C(=O)N(C2CCC(=O)N(C)C2=O)C3=O)cc1)C(=O)N[C@@H](C[C@@H]1CCNC1=O)C(=O)C(=O)NC1CC1 (stereo partly shown)
IC50 (SARS-CoV-2 M^pro): 110 nM

CC(C)C[C@H](NC(=O)OCc1ccc(NC(=O)CCC(=O)NCCOCCOCCNc2cccc3c2C(=O)N(C2CCC(=O)NC2=O)C3=O)cc1)C(=O)N[C@@H](C[C@@H]1CCNC1=O)C(=O)C(=O)NC1CC1 (stereo partly shown)
IC50 (SARS-CoV-2 M^pro): 110 nM
IC50 (PL^pro): > 20000 nM
CC50 [1]: > 250000 nM
CC50 [2]: > 250000 nM

C#CCCC(=O)Nc1ccc(COC(=O)N[C@@H](CC(C)C)C(=O)N[C@@H](C[C@@H]2CCNC2=O)C(=O)C(=O)NC2CC2)cc1
IC50 (SARS-CoV-2 M^pro): 150 nM
IC50 (PL^pro): > 20000 nM
CC50 [1]: > 250000 nM
CC50 [2]: > 250000 nM

O=C(NC1CC1)C(=O)[C@H](C[C@@H]1CCNC1=O)NC(=O)C1[C@H]2CCC[C@H]2CN1C(=O)OCc1ccccc1 (stereo partly shown)
IC50 (SARS-CoV-2 M^pro): 130 nM
CC50 (in vitro [3]): > 250000 nM

CC1(C)[C@@H]2C(C(=O)N[C@@H](C[C@@H]3CCNC3=O)C(=O)C(=O)NC3CC3)N(C(=O)OCc3ccccc3)C[C@@H]21 (stereo partly shown)
IC50 (SARS-CoV-2 M^pro): 200 nM
CC50 (in vitro [3]): > 250000 nM

CC(C)C[C@H](NC(=O)OCC1CCC(F)(F)CC1)C(=O)N[C@@H](C[C@@H]1CCNC1=O)C(=O)C(=O)NC1CC1
IC50 (SARS-CoV-2 M^pro): 60 nM
EC50 (SARS-CoV-2 [4]): 2600 nM
CC50 (in vitro [3]): > 250000 nM

O=C(N[C@H](C(=O)N[C@@H](C[C@@H]1CCNC1=O)C(=O)C(=O)NC1CC1)C1CCCCC1)OCc1ccccc1
IC50 (SARS-CoV-2 M^pro): 380 nM
IC50 (PL^pro): > 20000 nM

CC(C)C[C@H](NC(=O)[C@H](Cc1ccccc1)NC(=O)OCc1ccccc1)C(=O)N[C@@H](C[C@@H]1CCNC1=O)C(=O)C(=O)NC(C)C
IC50 (SARS-CoV-2 M^pro): 130 nM
IC50 (PL^pro): > 20000 nM

CC(C)C[C@H](NC(=O)[C@H](Cc1ccccc1)NC(=O)OCc1ccccc1)C(=O)N[C@@H](C[C@@H]1CCNC1=O)C(=O)C(=O)NCc1ccccc1
IC50 (SARS-CoV-2 M^pro): 90 nM
IC50 (PL^pro): > 20000 nM

CC(C)[C@H](NC(=O)OCc1ccccc1)C(=O)N[C@@H](C[C@@H]1CCNC1=O)C(=O)C(=O)NC1CC1
IC50 (SARS-CoV-2 M^pro): 1290 nM

O=C(N[C@@H](Cc1ccc(F)cc1)C(=O)N[C@@H](C[C@@H]1CCNC1=O)C(=O)C(=O)NC1CC1)OCc1ccccc1
IC50 (SARS-CoV-2 M^pro): 5500 nM

O=C(N[C@@H](Cc1ccccc1)C(=O)N[C@@H](C[C@@H]1CCNC1=O)C(=O)C(=O)NC1CC1)OCc1ccccc1
IC50 (SARS-CoV-2 M^pro): 780 nM
CC50 (in vitro [5]): > 100000 nM
CC50 (in vitro [6]): > 100000 nM

CC(C)C[C@H](NC(=O)OCc1ccccc1)C(=O)N[C@@H](C[C@@H]1CCNC1=O)C(=O)C(=O)NC1CC1
IC50 (SARS-CoV-2 M^pro; read-out: SARS-CoV-2 M^pro IC50, Table 2): 45 nM
CC50 (in vitro [5]): > 100000 nM
CC50 (in vitro [6]): > 100000 nM

CCOC(=O)/C=C/[C@H](C[C@@H]1CCNC1=O)NC(=O)[C@H](CC(C)C)NC(=O)OCc1ccccc1
IC50 (SARS-CoV-2 M^pro): 1710 nM

CC(C)C[C@H](NC(=O)OCc1ccccc1)C(=O)N[C@@H](CC(C)C)C(=O)N[C@@H](C[C@@H]1CCNC1=O)C(=O)C(=O)NC1CC1
IC50 (SARS-CoV-2 M^pro): 12 nM

CC(C)C[C@H](NC(=O)[C@@H](NC(=O)OCc1ccccc1)C(C)C)C(=O)N[C@@H](C[C@@H]1CCNC1=O)C(=O)C(=O)NC1CC1
IC50 (SARS-CoV-2 M^pro): 14 nM

CC(C)C[C@H](NC(=O)[C@H](Cc1ccccc1)NC(=O)OCc1ccccc1)C(=O)N[C@@H](C[C@@H]1CCNC1=O)C(=O)C(=O)NC1CC1
IC50 (SARS-CoV-2 M^pro): 13 nM

O=C(N[C@@H](Cc1ccccc1)C(=O)N[C@@H](C[C@@H]1CCNC1=O)C(O)S(=O)(=O)[O][Na+])OCc1ccccc1 (stereo partly shown)
IC50 (SARS-CoV-2 M^pro): 40 nM

CC(C)C[C@H](NC(=O)OCc1ccccc1)C(=O)N[C@@H](CC1CCNC1=O)C(O)S(=O)(=O)O (stereo partly shown) [GC-376]
IC50 (calpain I): 74 nM
IC50 (cathepsin L): 4.4 nM

O=CC(CC1CCNC1=O)NC(=O)C1C2CCCC2CN1C(=O)OCc1ccccc1 (stereo not shown) [UAWJ9-36-1]
melting temperature shift (ΔTm) [7]: significantly increased
antiviral potency against SARS-CoV-2 relative to GC-376 (SARS-CoV-2 [8]): less potent than GC-376
EC50 (HCoV-OC43): 46 nM
EC50 (HCoV-229E): 170 nM
antiviral activity against HCoV-NL63 in Vero E6 cells in the presence of P-gp inhibitor CP-100356 (HCoV-NL63): increased

CC1(C)C2CN(C(=O)OCc3ccccc3)C(C(=O)NC(C=O)CC3CCNC3=O)C21 (stereo not shown) [UAWJ9-36-3]
EC50 (HCoV-OC43): 59 nM
EC50 (HCoV-229E): 130 nM
antiviral activity against HCoV-NL63 in Vero E6 cells in the presence of P-gp inhibitor CP-100356 (HCoV-NL63): increased

COC(=O)C[C@H](NC(=O)[C@H](C)NC(=O)[C@@H](NC(=O)OCc1ccccc1)C(C)C)C(=O)CF [Z-VAD-FMK] (Cbz-Val-Ala-Asp(OMe)-CH2F)
IC50 (caspase-3): 100 ± 40 nM
